For the test, the target named is T1, GABA A receptor α5β3γ2 (hα5) (Homo sapiens, UniProt P18507+P31644).
T1 construct: expressed in transfected cells; host or cells: HEK293 (transiently transfected), membrane preparation
The test is described as follows: [3H]flumazenil competition binding assay, human GABA A α5β3γ2. To be noted: displacement of [3H]flumazenil (0.5 nM) from HEK293 cell membranes expressing α5β3γ2; means of two determinations; read-out: Ki[nM] hα5. As for the experimental part: The affinity of compounds at GABA A receptor subtypes was measured by competition for [3H]flumazenil (85 Ci/mmol; Roche) binding to HEK293 cells expressing rat (stably transfected) or human (transiently transfected) receptors of composition α1β3γ2, α2β3γ2, α3β3γ2 and α5β3γ2.
Cell pellets were suspended in Krebs-tris buffer (4.8 mM KCl, 1.2 mM CaCl2, 1.2 mM MgCl2, 120 mM NaCl, 15 mM Tris; pH 7.5; binding assay buffer), homogenized by polytron for ca. 20 sec on ice and centrifuged for 60 min at 4° C. (50000 g; Sorvall, rotor: SM24=20000 rpm). The cell pellets were resuspended in Krebs-tris buffer and homogenized by polytron for ca. 15 sec on ice. Protein was measured (Bradford method, Bio-Rad) and aliquots of 1 mL were prepared and stored at −80° C.
Radioligand binding assays were carried out in a volume of […] (96-well plates) which contained […] of cell membranes, [3H]flumazenil at a concentration of 1 nM for α1, α2, α3 subunits and 0.5 nM for α5 subunits and the test compound in the range of […]. Nonspecific binding was defined by 10^−5 M diazepam and typically represented less than 5% of the total binding. Assays were incubated to equilibrium for 1 hour at 4° C. and harvested onto GF/C uni-filters (Packard) by filtration using a Packard harvester and washing with ice-cold wash buffer (50 mM Tris; pH 7.5). After drying, filter-retained radioactivity was detected by liquid scintillation counting. Ki values were calculated using Excel-Fit (Microsoft) and are the means of two determinations.
(In a radioligand displacement assay an active substance lowers the binding of a labelled ligand.)
Take `Cc1cccc(-n2cnc(-c3c(-c4ccc(F)cc4)noc3C)c2)c1` [Example 118, 3-(4-Fluoro-phenyl)-5-methyl-4-(1-m-tolyl-1H-imidazol-4-yl)-isoxazole]: the Ki is 29 nM. For the compound “5-Ethyl-4-[1-(4-nitro-phenyl)-1H-imidazol-4-yl]-3-phenyl-isoxazole [Example 31]”, the Ki stood at 5 nM. Take `Cc1onc(-c2ccccc2)c1-c1cn(-c2cccc(C#N)c2)cn1` [Example 17, 3-[4-(5-Methyl-3-phenyl-isoxazol-4-yl)-imidazol-1-yl]-benzonitrile]: the Ki was 27 nM. As for `C#CCNC(=O)c1ccc(-n2cnc(-c3c(-c4cccc(F)c4)noc3C)c2)cc1` [Example 97, 4-{4-[3-(3-Fluoro-phenyl)-5-methyl-isoxazol-4-yl]-imidazol-1-yl}-N-prop-2-ynyl-benzamide], the Ki was 10 nM. For `COC(=O)c1ccc(-n2cnc(-c3c(-c4ccc(F)cc4)noc3C)c2)cc1` [Example 125, 4-{4-[3-(4-Fluoro-phenyl)-5-methyl-isoxazol-4-yl]-imidazol-1-yl}-benzoic acid methyl ester] the value was 13.6 nM.

`Cc1onc(-c2ccccc2)c1-c1cn(-c2cccc(C(F)(F)F)c2)cn1` [Example 10, 5-Methyl-3-phenyl-4-[1-(3-trifluoromethyl-phenyl)-1H-imidazol-4-yl]-isoxazole]: the Ki was determined as 20.4 nM. Consider `Cc1onc(-c2ccccc2)c1-c1cn(-c2ccc(C(=O)NCc3ccncc3)cc2)cn1` [Example 79, 4-[4-(5-Methyl-3-phenyl-isoxazol-4-yl)-imidazol-1-yl]-N-pyridin-4-ylmethyl-benzamide], for which the Ki is 14 nM. On to `Cc1onc(-c2ccc(F)cc2)c1-c1cn(-c2cccc(F)c2)cn1` [Example 119, 3-(4-Fluoro-phenyl)-4-[1-(3-fluoro-phenyl)-1H-imidazol-4-yl]-5-methyl-isoxazole], for which the Ki worked out at 33.7 nM.

Turning to `Cc1onc(-c2ccc(F)cc2)c1-c1cn(-c2ccc(C(=O)NC3CCCC3)cc2)cn1` [Example 126, N-Cyclopentyl-4-{4-[3-(4-fluoro-phenyl)-5-methyl-isoxazol-4-yl]-imidazol-1-yl}-benzamide], the Ki is 11.9 nM. For `CCOc1ccc(-n2cnc(-c3c(-c4ccccc4)noc3C)c2)cc1` [Example 19, 4-[1-(4-Ethoxy-phenyl)-1H-imidazol-4-yl]-5-methyl-3-phenyl-isoxazole] the value was 28.7 nM.

Take `Cc1onc(-c2ccc(F)cc2)c1-c1cn(-c2cccnc2)cn1` [Example 124, 3-{4-[3-(4-Fluoro-phenyl)-5-methyl-isoxazol-4-yl]-imidazol-1-yl}-pyridine]: the Ki was found to be 27.2 nM. As to `COC(=O)c1cccc(-n2cnc(-c3c(-c4ccccc4)noc3C)c2)c1` [Example 11, 3-[4-(5-Methyl-3-phenyl-isoxazol-4-yl)-imidazol-1-yl]-benzoic acid methyl ester], the Ki was found to be 15.1 nM. On to `CCc1onc(-c2ccc(F)cc2)c1-c1cn(-c2ccc([N+](=O)[O-])cc2)cn1` [Example 134, 5-Ethyl-3-(4-fluoro-phenyl)-4-[1-(4-nitro-phenyl)-1H-imidazol-4-yl]-isoxazole], for which the Ki came to 12.7 nM.

As to `CCc1onc(-c2ccc(F)cc2)c1-c1cn(-c2ccc(C(F)(F)F)cc2)cn1` [Example 133, 5-Ethyl-3-(4-fluoro-phenyl)-4-[1-(4-trifluoromethyl-phenyl)-1H-imidazol-4-yl]-isoxazole], the Ki was determined as 29.8 nM. For the compound `Cc1onc(-c2ccccc2)c1-c1cn(-c2ccc(C#N)cc2)cn1` [Example 16, 4-[4-(5-Methyl-3-phenyl-isoxazol-4-yl)-imidazol-1-yl]-benzonitrile], the Ki amounted to 15.1 nM. With `Cc1onc(-c2ccccc2)c1-c1cn(-c2cccc(C(=O)NC3CC3)c2)cn1` [Example 84, N-Cyclopropyl-3-[4-(5-methyl-3-phenyl-isoxazol-4-yl)-imidazol-1-yl]-benzamide], the Ki was found to be 31.8 nM.

A word on the Ki: it is a dissociation constant, usually derived from enzyme kinetics or from competition with a known ligand.

The values are drawn from patent US7414061B2, “Aryl-isoxazol-4-yl-imidazole derivatives” (Hoffmann-La Roche Inc., priority 2005, dated 2008).
